Source: PubChem BioAssay AID2060887 (Molecular Pharmacology Branch, DTP, NCI, 2025)

Test system: 782815-120-R-J1-PDC complex spheroid viability
Assay: Anticancer human tumor 782815-120-R-J1-PDC patient-derived colon adenocarcinoma cell line growth inhibition [RAS]
Conditions: for IC50: curve of first compound; for viability, T/C: stronger effect = lower value
Summary of the method: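 Tumour cells grown as complex spheroids with HUVEC endothelial cells and mesenchymal stem cells, treated with RAS pathway inhibitor combinations. Each agent spans half-log steps from near clinical Cmax, or 10 microM where Cmax is unknown.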

[1] = second compound 0.000949 µM, first compound 0.0316 µM
[2] = second compound 0.000949 µM, first compound 0.1 µM
[3] = second compound 0.000949 µM, first compound 0.316 µM
[4] = second compound 0.000949 µM, first compound 1 µM
[5] = second compound 0.000949 µM, first compound 3.16 µM
[6] = second compound 0.000949 µM, first compound 10 µM
[7] = second compound 0.003 µM, first compound 0.0316 µM
[8] = second compound 0.003 µM, first compound 0.1 µM
[9] = second compound 0.003 µM, first compound 0.316 µM
[10] = second compound 0.003 µM, first compound 1 µM
[11] = second compound 0.003 µM, first compound 3.16 µM
[12] = second compound 0.003 µM, first compound 10 µM
[13] = second compound 0.00949 µM, first compound 0.0316 µM
[14] = second compound 0.00949 µM, first compound 0.1 µM
[15] = second compound 0.00949 µM, first compound 0.316 µM
[16] = second compound 0.00949 µM, first compound 1 µM
[17] = second compound 0.00949 µM, first compound 3.16 µM
[18] = second compound 0.00949 µM, first compound 10 µM
[19] = second compound 0.03 µM, first compound 0.0316 µM
[20] = second compound 0.03 µM, first compound 0.1 µM
[21] = second compound 0.03 µM, first compound 0.316 µM
[22] = second compound 0.03 µM, first compound 1 µM
[23] = second compound 0.03 µM, first compound 3.16 µM
[24] = second compound 0.03 µM, first compound 10 µM
[25] = second compound 0.0949 µM, first compound 0.0316 µM
[26] = second compound 0.0949 µM, first compound 0.1 µM
[27] = second compound 0.0949 µM, first compound 0.316 µM
[28] = second compound 0.0949 µM, first compound 1 µM
[29] = second compound 0.0949 µM, first compound 3.16 µM
[30] = second compound 0.0949 µM, first compound 10 µM
[31] = second compound 0.3 µM, first compound 0.0316 µM
[32] = second compound 0.3 µM, first compound 0.1 µM
[33] = second compound 0.3 µM, first compound 0.316 µM
[34] = second compound 0.3 µM, first compound 1 µM
[35] = second compound 0.3 µM, first compound 3.16 µM
[36] = second compound 0.3 µM, first compound 10 µM
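Also: spheroids exposed to compounds for 7 days before reading.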
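For viability, T/C in this document: 100% = DMSO vehicle control viability.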

With `CC(C)NCC(C(=O)N1CCN(c2ncnc3c2C(C)CC3O)CC1)c1ccc(Cl)cc1` (stereo unspecified) + CCn1c(-c2cc(N3CCN(C)CC3)cnc2C(C)OC)c2c3cc(ccc31)-c1csc(n1)CC(NC(=O)C1CC1C)C(=O)N1CCCC(N1)C(=O)OCC(C)(C)C2 the IC50 (second compound 0.000949 µM) was > 10000 nM, the IC50 (second compound 0.003 µM) was > 10000 nM and the IC50 (second compound 0.00949 µM) was < 31.6 nM. For the same compound, the IC50 (second compound 0.03 µM) was < 31.6 nM, the IC50 (second compound 0.0949 µM) was < 31.6 nM and the IC50 (second compound 0.3 µM) was < 31.6 nM. It also gave a viability, T/C [1] of 79.6%, a viability, T/C [2] of 77.7% and a viability, T/C [3] of 74.5%. For the same compound, the viability, T/C [4] was 71.6%, the viability, T/C [5] was 77.4% and the viability, T/C [6] was 87.9%. For the same compound, the viability, T/C [7] was 57.2%, the viability, T/C [8] was 54.8% and the viability, T/C [9] was 61.9%. The viability, T/C [10] was 50.3%, the viability, T/C [11] was 57.2% and the viability, T/C [12] was 51.3%. For the same compound, the viability, T/C [13] was 34.2%, the viability, T/C [14] was 33.1% and the viability, T/C [15] was 35.3%. For the same compound, the viability, T/C [16] was 30.1%, the viability, T/C [17] was 30% and the viability, T/C [18] was 26.4%. It also gave a viability, T/C [19] of 20.2%, a viability, T/C [20] of 19.9% and a viability, T/C [21] of 19.1%. The viability, T/C [22] was 17.2%, the viability, T/C [23] was 16.5% and the viability, T/C [24] was 16.1%. The viability, T/C [25] was 17.2%, the viability, T/C [26] was 17.7% and the viability, T/C [27] was 18.8%. For the same compound, the viability, T/C [28] was 15%, the viability, T/C [29] was 16.1% and the viability, T/C [30] was 11%. The viability, T/C [31] was 18.3%, the viability, T/C [32] was 17.4% and the viability, T/C [33] was 15.3%. It also gave a viability, T/C [34] of 14.8%, a viability, T/C [35] of 14.3% and a viability, T/C [36] of 8.75%.
With `CC(Nc1ccc2c(c1)OCCn1cc(N3C(=O)OCC3C(F)F)nc1-2)C(N)=O` (stereo unspecified) + CCn1c(-c2cc(N3CCN(C)CC3)cnc2C(C)OC)c2c3cc(ccc31)-c1csc(n1)CC(NC(=O)C1CC1C)C(=O)N1CCCC(N1)C(=O)OCC(C)(C)C2 the IC50 (second compound 0.000949 µM) was > 10000 nM, the IC50 (second compound 0.003 µM) was 195 nM and the IC50 (second compound 0.00949 µM) was < 31.6 nM. The IC50 (second compound 0.03 µM) was < 31.6 nM, the IC50 (second compound 0.0949 µM) was < 31.6 nM and the IC50 (second compound 0.3 µM) was < 31.6 nM. It also gave a viability, T/C [1] of 75.1%, a viability, T/C [2] of 73.5% and a viability, T/C [3] of 76%. It also gave a viability, T/C [4] of 62.9%, a viability, T/C [5] of 73.8% and a viability, T/C [6] of 78.5%. It also gave a viability, T/C [7] of 53.1%, a viability, T/C [8] of 54.9% and a viability, T/C [9] of 46.4%. For the same compound, the viability, T/C [10] was 47.5%, the viability, T/C [11] was 45.1% and the viability, T/C [12] was 51.8%. It also gave a viability, T/C [13] of 29.8%, a viability, T/C [14] of 31.2% and a viability, T/C [15] of 27.9%. For the same compound, the viability, T/C [16] was 24.9%, the viability, T/C [17] was 24.1% and the viability, T/C [18] was 25.3%. It also gave a viability, T/C [19] of 19.8%, a viability, T/C [20] of 18.4% and a viability, T/C [21] of 15%. The viability, T/C [22] was 15.6%, the viability, T/C [23] was 16.2% and the viability, T/C [24] was 13.1%. The viability, T/C [25] was 15.4%, the viability, T/C [26] was 15.1% and the viability, T/C [27] was 11.4%. The viability, T/C [28] was 11.5%, the viability, T/C [29] was 13.5% and the viability, T/C [30] was 11.9%. It also gave a viability, T/C [31] of 15.6%, a viability, T/C [32] of 13% and a viability, T/C [33] of 10.1%. The viability, T/C [34] was 11.8%, the viability, T/C [35] was 11.9% and the viability, T/C [36] was 11.8%.
In the case of `O=C(c1ccc(F)c(F)c1Nc1ccc(I)cc1F)N1CC(O)([C@@H]2CCCCN2)C1` + CCn1c(-c2cc(N3CCN(C)CC3)cnc2C(C)OC)c2c3cc(ccc31)-c1csc(n1)CC(NC(=O)C1CC1C)C(=O)N1CCCC(N1)C(=O)OCC(C)(C)C2, the IC50 (second compound 0.000949 µM) is reported as 24.1 nM, the IC50 (second compound 0.003 µM) is reported as 5.51 nM and the IC50 (second compound 0.00949 µM) is reported as < 3.16 nM. For the same compound, the IC50 (second compound 0.03 µM) was < 3.16 nM, the IC50 (second compound 0.0949 µM) was < 3.16 nM and the IC50 (second compound 0.3 µM) was < 3.16 nM. It also gave a viability, T/C (second compound 0.000949 µM, first compound 0.00316 µM) of 75.1%, a viability, T/C (second compound 0.000949 µM, first compound 0.01 µM) of 64.1% and a viability, T/C [1] of 46.5%. It also gave a viability, T/C [2] of 23.2%, a viability, T/C [3] of 13% and a viability, T/C [4] of 1.01%. It also gave a viability, T/C (second compound 0.003 µM, first compound 0.00316 µM) of 59.4%, a viability, T/C (second compound 0.003 µM, first compound 0.01 µM) of 37.5% and a viability, T/C [7] of 32.3%. The viability, T/C [8] was 17.9%, the viability, T/C [9] was 6.64% and the viability, T/C [10] was 0.53%. For the same compound, the viability, T/C (second compound 0.00949 µM, first compound 0.00316 µM) was 28.2%, the viability, T/C (second compound 0.00949 µM, first compound 0.01 µM) was 24.9% and the viability, T/C [13] was 13.7%. For the same compound, the viability, T/C [14] was 8.14%, the viability, T/C [15] was 1.43% and the viability, T/C [16] was 0.48%. It also gave a viability, T/C (second compound 0.03 µM, first compound 0.00316 µM) of 12.3%, a viability, T/C (second compound 0.03 µM, first compound 0.01 µM) of 9.75% and a viability, T/C [19] of 3.83%. For the same compound, the viability, T/C [20] was 1.67%, the viability, T/C [21] was 0.8% and the viability, T/C [22] was 0.47%. The viability, T/C (second compound 0.0949 µM, first compound 0.00316 µM) was 5.71%, the viability, T/C (second compound 0.0949 µM, first compound 0.01 µM) was 2.85% and the viability, T/C [25] was 2.06%. For the same compound, the viability, T/C [26] was 1.08%, the viability, T/C [27] was 0.77% and the viability, T/C [28] was 0.49%. It also gave a viability, T/C (second compound 0.3 µM, first compound 0.00316 µM) of 6.59%, a viability, T/C (second compound 0.3 µM, first compound 0.01 µM) of 1.81% and a viability, T/C [31] of 1.42%. The viability, T/C [32] was 0.75%, the viability, T/C [33] was 0.63% and the viability, T/C [34] was 0.61%.
